Values joined by “and” are separate entries in the source; they are usually repeats but may differ in a detail not shown here. Equal values may be shown once. Read-outs that look alike come from different tables or passages of the source. One block for each compound: values may come before it.
How the values were obtained:
[1] = Precipitation test after adjusting aqueous solution to pH 7.0; type: physicochemical; conditions: 32 mg based on topiramate in 1 mL H2O, pH adjusted to 7.0 with 1.0 N HCl
[2] = Solubility/pH studies of topiramate-containing coordination complexes (gravimetric); type: physicochemical
Method: Solubility/pH Studies of Topiramate-Containing Coordination Complexes: Initial screening of drug candidates was based on a qualitative determination of aqueous solubility using gravimetric methods. Briefly, a known quantity of coordination compound (ca. 50 mg) was dissolved in a known amount of water ([…]). The pH of the resulting mixture was measured, and the solution/suspension was filtered and concentrated to afford a minimal solubility value.

[3] = for pH: Table 2, pH of the solution; for increase in water solubility over SAHA: pH 10
[4] = cited from earlier work
[5] = highly variable; cited from earlier work
[6] = 23° C., cited from earlier work
[7] = pH 7.4; cited from earlier work

- precipitation on standing [1]: A precipitate formed immediately
Compound: CC1(C)O[C@@H]2[C@@H](CO[C@@]3(COS([NH-])(=O)=O)OC(C)(C)O[C@@H]23)O1.CC1(C)O[C@@H]2[C@@H](CO[C@@]3(COS([NH-])(=O)=O)OC(C)(C)O[C@@H]23)O1.[Ca+2] [Calcium Salt of Topiramate]

- solubility (minimal value) ([2]; pH 7.0, gravimetric): ≥ 34 mg/mL
Compound: CC1(C)O[C@@H]2[C@@H](CO[C@@]3(COS([NH-])(=O)=O)OC(C)(C)O[C@@H]23)O1.CC1(C)O[C@@H]2[C@@H](CO[C@@]3(COS([NH-])(=O)=O)OC(C)(C)O[C@@H]23)O1.[Ca+2] [Calcium(topiramate)2]
- precipitation on standing [1]: No precipitate was observed upon standing for 2 hours
- solubility relative to free topiramate ([2]; pH 7.0): at least three times the solubility of free topiramate

- pH of the solution [3]: 7.75
- pH [3]: 7.94
Compound: O=C(CCCCCCC(=O)Nc1ccccc1)N[O-].O=C(CCCCCCC(=O)Nc1ccccc1)N[O-].[Mg+2] [Compound 1, Mg(saha)2]

- pH of the solution [3]: 8.60
- pH [3]: 8.6
Compound: O=C(CCCCCCC(=O)Nc1ccccc1)N[O-].O=C(CCCCCCC(=O)Nc1ccccc1)N[O-].[Ca+2] [Compound 2, Ca(saha)2]
- pH of solution compared with SAHA ([3]; in words): slightly higher than the pH of a solution of SAHA itself

- pH of the solution [3]: 5.86
- pH [3]: 5.67
Compound: O=C(CCCCCCC(=O)Nc1ccccc1)N[O-].O=C(CCCCCCC(=O)Nc1ccccc1)N[O-].[Ni+2] [Compound 3, Ni(saha)2]

- pH of the solution [3]: around 10
- pH [3]: 10
- pH of the solution ([3]; listed as sodium salt of SAHA): 10
- increase in water solubility over SAHA [3]: ~7 fold
Compound: O=C(CCCCCCC(=O)Nc1ccccc1)N[O-].[Na+] [Na(saha)]
- solution pH required to stay in solution ([4]; prior study, Memorial Sloan Kettering Cancer Center): above 11

- pH [3]: 7.95
Compound: O=C(CCCCCCC(=O)Nc1ccccc1)NO [SAHA, suberoylanilide hydroxamic acid]
- oral bioavailability [5]: less than 50%
- water solubility [4]: about 0.1 mg/mL

Compound: CC1(C)O[C@@H]2[C@@H](CO[C@@]3(COS([NH-])(=O)=O)OC(C)(C)O[C@@H]23)O1.O.O.O.[Na+] [sodium topiramate trihydrate]
- water solubility ([6]; trihydrate): about 1300 mg/mL and ~3.59 M

Compound: CC1(C)O[C@@H]2[C@@H](CO[C@@]3(COS(N)(=O)=O)OC(C)(C)O[C@@H]23)O1 [topiramate, 2,3:4,5-bis-O-isopropylidene-β-D-fructopyranose sulfamate]
- water solubility [6]: about 9.8 mg/mL and ~0.029 M
- log D [7]: −0.5

- increase in water solubility over SAHA [3]: ~19 fold
Compound: Ca(saha)(quinic acid) [Compound 5]

- pH of the solution [3]: 8.75
- pH [3]: 8.75
Compound: Ca(saha)(tricine) [Compound 4]

Source: patent US9624256B2, “Coordination complexes, pharmaceutical solutions comprising coordination complexes, and methods of treating patients” (SYNTHONICS, INC., priority 2004, dated 2017)
